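Five compound concentrations were applied to cells in 96-well plates for 48 hours; endpoints were derived by simple linear interpolation of the resulting dose-response curve. Here, GI50 denotes the concentration required for 50% inhibition of growth. Definition used: TGI = concentration required for complete inhibition of growth.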
What was measured:
Assay in all cases: DTP human tumour cell line panel, 48 h
786-0 renal = system: 786-0 renal
CAKI-1 renal = system: CAKI-1 renal
KM12 colon = system: KM12 colon
KM20L2 colon = system: KM20L2 colon
M19-MEL melanoma = system: M19-MEL melanoma
OVCAR-4 ovarian = system: OVCAR-4 ovarian
SN12C renal = system: SN12C renal
SNB-78 CNS = system: SNB-78 CNS
SW-620 colon = system: SW-620 colon
HOP-18 NSCLC = system: HOP-18 NSCLC
XF 498 CNS = system: XF 498 CNS
BT-549 breast = system: BT-549 breast
MDA-MB-435 = system: MDA-MB-435

Compound | TGI (786-0 renal) [µM] | TGI (CAKI-1 renal) [µM] | TGI (KM12 colon) [µM] | TGI (KM20L2 colon) [µM] | TGI (M19-MEL melanoma) [µM] | TGI (OVCAR-4 ovarian) [µM] | TGI (SN12C renal) [µM] | TGI (SNB-78 CNS) [µM] | TGI (SW-620 colon) [µM] | TGI (HOP-18 NSCLC) [µM] | TGI (XF 498 CNS) [µM] | TGI (BT-549 breast) [µM] | TGI (MDA-MB-435) [µM] | GI50 (MDA-MB-435) [µM]
Cc1ccc(S(=O)(=O)N/N=C\c2c3ccccc3[n+](C)c3ccccc23)cc1 | > 100 | > 100 | > 100 | > 100 | > 100 | > 100 | > 100 | > 100 | > 100 |  |  |  |  | 
Nc1ncc2c(n1)-c1ccccc1OC2 |  |  | > 100 | > 100 | > 100 | > 31.6 | > 100 | > 100 | > 100 | > 100 | > 100 |  |  | 
O=S(=O)(O)c1cc(N=[N+]([O-])c2ccc(N=Nc3ccccc3)cc2S(=O)(=O)O)ccc1/C=C/c1ccc(N=[N+]([O-])c2ccc(N=Nc3ccccc3)cc2S(=O)(=O)O)cc1S(=O)(=O)O |  |  | > 100 |  | > 100 | > 100 | > 100 | > 100 | > 100 | > 100 | > 100 |  |  | 
OC(CCl)CN1CC[N+]2(CC1)CC[N+]1(CCN(CC(O)CCl)CC1)CC2 (centres undefined) | > 50 | > 50 | > 50 | > 50 | > 50 | > 50 | > 50 |  | > 50 | > 50 | > 50 |  |  | 
CC1=C(C(=O)NCc2ccccc2)C(c2ccco2)C(C(=O)NCc2ccccc2)=C(C)N1 |  | > 100 | > 100 | > 100 |  | > 100 | > 100 | > 100 | > 100 | > 100 | > 100 |  |  | 
O=[N+]([O-])c1ccc(Nc2cccc3c2[nH]c2c(-c4ccccc4)nccc23)c([N+](=O)[O-])c1 |  |  | > 100 | > 100 | > 100 | > 100 | > 100 | > 100 | > 100 | > 100 | > 100 |  |  | 
Cc1cc(OCC(O)CO)ccc1Cl (centres undefined) |  | > 100 | > 100 | > 100 | > 100 | > 100 | > 100 |  | > 100 | > 100 |  |  |  | 
CCCCOc1ccc(S(=O)(=O)/N=C(\NO)Nc2ccc(Cl)cc2)cc1 | 29.2 | 23.2 | 31.7 |  |  | 23.6 | 31 |  | 40.3 |  |  | 26.7 | 30.6 | 
CCN(CCC#N)C(=O)Nc1ccccc1 | > 100 | > 100 | > 100 |  |  | > 100 | > 100 |  | > 100 |  |  | > 100 | > 100 | 
CCOC(=O)CCC(NC(=O)c1ccc(Nc2nc3ccccc3nc2C(=O)OCC)s1)C(=O)OCC (centres undefined) | > 100 | > 100 | > 100 |  |  | > 100 | > 100 |  | > 100 |  |  | > 100 | > 100 | 
CC1CN=C(c2ccc(CN3CCC(CCCC4CCN(Cc5ccc(C6=NCC(C)N6)cc5)CC4)CC3)cc2)N1 (centres undefined) | > 100 | > 100 | 40 |  |  | 57.1 | > 100 |  | > 100 |  |  | > 100 | 36.7 | 
CC(C)(C)CC(C)(C)NCC(O)COc1ccc(C(C)(C)c2ccc(OCC(O)CNC(C)(C)CC(C)(C)C)cc2)cc1 (centres undefined) | 2.77 | 3.13 | 2.31 | 2.88 | 2.88 | 3.23 | 3.04 | 3.63 | 0.463 |  | 3.02 |  | 1.73 | 0.513
COc1ccc(C2=NN(c3nsc4ccccc34)C(=O)CC2)cc1 |  |  | > 100 | > 100 | > 100 | > 100 | > 100 | > 100 | > 100 | > 100 |  |  |  | 

Source: PubChem BioAssay (NCI)
